# In patent US20260364184A1, “COMPOUND BASED ON OXOISOINDOLINYL-SUBSTITUTED TETRAHYDROPYRIMIDINE-DIONE AND USE THEREOF” (GLUETACS THERAPEUTICS (SHANGHAI) CO., LTD., priority 2023, published 2026):
# Target: T1, IRAK4 (Homo sapiens, UniProt Q9NWZ3)
# T1 construct: expression of target proteins in cells; endogenous in cells
# T1 sequence (Q9NWZ3 1-460): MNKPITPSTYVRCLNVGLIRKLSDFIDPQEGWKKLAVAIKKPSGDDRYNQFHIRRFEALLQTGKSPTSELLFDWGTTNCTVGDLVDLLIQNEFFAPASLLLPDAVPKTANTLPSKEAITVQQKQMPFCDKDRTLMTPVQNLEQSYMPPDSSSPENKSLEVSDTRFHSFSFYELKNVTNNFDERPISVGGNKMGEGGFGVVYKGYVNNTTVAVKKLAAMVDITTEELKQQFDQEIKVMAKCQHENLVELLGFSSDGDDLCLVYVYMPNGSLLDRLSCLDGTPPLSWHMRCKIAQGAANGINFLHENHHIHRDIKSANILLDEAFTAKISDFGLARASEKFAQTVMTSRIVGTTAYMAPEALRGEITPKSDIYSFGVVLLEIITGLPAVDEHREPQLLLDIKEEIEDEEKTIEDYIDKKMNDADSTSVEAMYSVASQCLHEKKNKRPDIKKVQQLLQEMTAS
# Experiment: Western blot degradation of IRAK4
# Assay type: cell-based
# Conditions: hPBMC Cell; 24 hours
# Method: Conventional Western blot assay was performed to evaluate the effects of the compounds of the present disclosure on the expression of target proteins in cells.
# (1) Cell Seeding and Protein Harvesting: The selected cells were processed according to the cell seeding procedure and protein harvesting procedure in Table II-2.
# (2) To the collected supernatant, 5×SDS sample loading buffer was added, followed by denaturation at 95 °C for 5 minutes. The denatured samples were then separated by SDS-PAGE electrophoresis on a polyacrylamide gel. Proteins were transferred to a nitrocellulose membrane (0.45 μm NC membrane), blocked with blocking buffer at room temperature for 1 hour, and subjected to antibody incubation and development procedures according to the antibody manufacturer's instructions (Cell Signaling Technology).
# Half-Maximal Degradation Concentration value (the drug concentration required for degrading proteins by 50%, abbreviated as DC50) reads method: comparing the grayscale values of Western blot bands from drug-treated samples with those from blank DMSO-treated controls, and identifying the drug concentration range at which the grayscale value is half that of the DMSO-treated control bands.
# DC50 values can be calculated using ImageJ software to measure grayscale values of Western blot bands from drug-treated samples. The concentration-response curve is fitted to estimate the drug concentration corresponding to half the grayscale value.
# Target protein remaining (%) refers to the percentage of target protein remaining in cells after treatment with protein degrader compounds.
# Calculation method for target protein remaining (%): Use ImageJ software to measure grayscale values of Western blot bands from drug (protein degrader)-treated samples. The grayscale value of drug-treated bands is divided by that of internal control protein bands, and the resulting quotient is normalized to obtain the relative percentage of remaining target protein after protein degrader treatment.
# Target protein degradation rate (%)=1−target protein remaining (%).
row,Compound,Degradation of substrate protein IRAK4 (substrate protein remaining %)
1,"CC(C)Nc1cc(-n2ccc3cc(C#N)cnc32)ncc1C(=O)NC1CCN(CC2CCN(c3ccc4c(c3)C(=O)N(N3CCC(=O)NC3=O)C4=O)CC2)CC1 [GT-05813, 6-(5-cyano-1H-pyrrolo[2,3-b]pyridin-1-yl)-N-(1-((1-(2-(2,4-dioxotetrahydropyrimidin-1(2H)-yl)-1,3-dioxoisoindolin-5-yl)piperidin-4-yl)methyl)piperidin-4-yl)-4-(isopropylamino) nicotinamide]",A (0%≤substrate protein remaining %≤80%)
2,"O=C1CCN(N2C(=O)c3ccc(N4C5CCC4CN(C[C@H]4CC[C@H](n6cc(NC(=O)c7cnn8ccc(N9C[C@H]%10C[C@@H]9CO%10)nc78)c(C(F)F)n6)CC4)C5)cc3C2=O)C(=O)N1 [GT-05240, 5-((1R,4R)-2-oxa-5-azabicyclo[2.2.1]heptan-5-yl)-N-(3-(difluoromethyl)-1-((1r,4R)-4-((8-(2-(2,4-dioxotetrahydropyrimidin-1(2H)-yl)-1,3-dioxoisoindolin-5-yl)-3,8-diazabicyclo[3.2.1]octan-3-yl)methyl)cyclohexyl)-1H-pyrazol-4-yl)pyrazolo[1,5-a]pyrimidine-3-carboxamide]",A (0%≤substrate protein remaining %≤80%)
3,"O=C1CCN(N2C(=O)c3ccc(N4CCC(CN5CCC(n6cc(NC(=O)c7cnn8ccc(N9C[C@H]%10C[C@@H]9CO%10)nc78)c(C(F)F)n6)CC5)CC4)cc3C2=O)C(=O)N1 [GT-05056, 5-((1R,4R)-2-oxa-5-azabicyclo[2.2.1]heptan-5-yl)-N-(3-(difluoromethyl)-1-(1-((1-(2-(2,4-dioxotetrahydropyrimidin-1(2H)-yl)-1,3-dioxoisoindolin-5-yl)piperidin-4-yl)methyl)piperidin-4-yl)-1H-pyrazol-4-yl)pyrazolo[1,5-a]pyrimidine-3-carboxamide]",A (0%≤substrate protein remaining %≤80%)
4,"CC(C)(O)c1cc2nn(C3CCN(CC4CCN(c5cccc6c5C(=O)N(N5CCC(=O)NC5=O)C6=O)CC4)CC3)cc2cc1NC(=O)c1cccc(C(F)(F)F)n1 [GT-05221, N-(2-(1-((1-(2-(2,4-dioxotetrahydropyrimidin-1(2H)-yl)-1,3-dioxoisoindolin-4-yl)piperidin-4-yl)methyl)piperidin-4-yl)-6-(2-hydroxypropan-2-yl)-2H-indazol-5-yl)-6-(trifluoromethyl) picolinamide]",A (0%≤substrate protein remaining %≤80%)

# The remaining lines, values ahead:
row,Degradation of substrate protein IRAK4 (substrate protein remaining %),Compound
1,A (0%≤substrate protein remaining %≤80%),"O=C1CCN(N2C(=O)c3ccc(N4CC5CC(C4)N5C[C@H]4CC[C@H](n5cc(NC(=O)c6cnn7ccc(N8C[C@H]9C[C@@H]8CO9)nc67)c(C(F)F)n5)CC4)cc3C2=O)C(=O)N1 [GT-05822, 5-((1R,4R)-2-oxa-5-azabicyclo[2.2.1]heptan-5-yl)-N-(3-(difluoromethyl)-1-((1r,4R)-4-((3-(2-(2,4-dioxotetrahydropyrimidin-1(2H)-yl)-1,3-dioxoisoindolin-5-yl)-3,6-diazabicyclo[3.1.1]heptan-6-yl)methyl)cyclohexyl)-1H-pyrazol-4-yl)pyrazolo[1,5-a]pyrimidine-3-carboxamide]"
2,A (0%≤substrate protein remaining %≤80%),"COc1cc2nn([C@H]3CC[C@H](CN4CCN(C5CCN(c6ccc7c(c6)C(=O)N(N6CCC(=O)NC6=O)C7=O)CC5)CC4)CC3)cc2cc1NC(=O)c1cccc(C(F)(F)F)c1 [GT-08671, N-(2-((1r,4r)-4-((4-(1-(2-(2,4-dioxotetrahydropyrimidin-1(2H)-yl)-1,3-dioxoisoindolin-5-yl)piperidin-4-yl)piperazin-1-yl)methyl)cyclohexyl)-6-methoxy-2H-indazol-5-yl)-3-(trifluoromethyl)benzamide]"
